Laboratory results reported in publication PMC2996101 (Journal of natural products, 2009).

Legend:
[1] = molecular target: T1, human 5-lipoxygenase (5-hLO) (Homo sapiens, UniProt P09917); assay: Lipoxygenase assay, 5-hLO; conditions: ratio of IC50 values
T1 sequence (P09917 1-674): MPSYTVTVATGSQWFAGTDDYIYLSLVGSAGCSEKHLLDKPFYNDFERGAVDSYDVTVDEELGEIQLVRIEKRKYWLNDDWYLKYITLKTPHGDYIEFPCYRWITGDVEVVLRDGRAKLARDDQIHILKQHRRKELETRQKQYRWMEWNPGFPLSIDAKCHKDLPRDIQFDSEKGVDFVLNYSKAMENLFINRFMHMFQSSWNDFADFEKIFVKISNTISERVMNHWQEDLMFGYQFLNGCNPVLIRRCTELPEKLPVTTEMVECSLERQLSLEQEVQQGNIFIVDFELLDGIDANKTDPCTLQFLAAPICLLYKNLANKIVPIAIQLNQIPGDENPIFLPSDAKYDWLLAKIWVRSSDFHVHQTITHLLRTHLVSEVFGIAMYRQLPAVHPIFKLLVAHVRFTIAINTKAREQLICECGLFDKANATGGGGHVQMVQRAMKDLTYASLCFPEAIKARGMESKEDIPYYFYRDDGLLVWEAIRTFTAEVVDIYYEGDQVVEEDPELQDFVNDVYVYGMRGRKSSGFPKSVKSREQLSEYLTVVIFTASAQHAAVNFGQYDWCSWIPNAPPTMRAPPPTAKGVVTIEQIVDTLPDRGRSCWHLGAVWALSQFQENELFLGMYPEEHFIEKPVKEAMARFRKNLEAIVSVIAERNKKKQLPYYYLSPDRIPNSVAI

12-hLO [2] = conditions: read-out: previous IC50 12-hLO; previous work without Triton X100 ref 9; cited from earlier work
15-hLO = conditions: read-out: previous IC50 15-hLO; previous work without Triton X100 ref 9; cited from earlier work
12-hLO [3] = conditions: data from literature ref 20; cited from earlier work
[4] = system: human lung adenocarcinoma cells over human leukemic lymphoid cells; assay: Soft agar disk diffusion assay; format: cell-based; conditions: Table S4

| SMILES | 12-hLO/5-hLO selectivity ratio [1] | 15-hLO/5-hLO selectivity ratio [1] | IC50 (12-hLO [2]) [µM] | IC50 (15-hLO) [µM] | 12-hLO activity (12-hLO [3]) | selectivity against solid tumor cells [4] |
| --- | --- | --- | --- | --- | --- | --- |
| CC1=C(CC/C(C)=C/CC/C(C)=C/Cc2cc(O)ccc2O)C(C)(C)CCC1 [Compound 9, jaspaquinol] | > 111 | 42 | 4.5 | 0.3 |  |  |
| C[C@@H](c1cc2ccccc2s1)N(O)C(N)=O [Compound 13, zileuton] |  |  |  |  | Active ^*, ^** |  |

The next lines start with results.

| 12-hLO/5-hLO selectivity ratio [1] | 15-hLO/5-hLO selectivity ratio [1] | SMILES | IC50 (12-hLO [2]) [µM] | IC50 (15-hLO) [µM] | 12-hLO activity (12-hLO [3]) | selectivity against solid tumor cells [4] |
| --- | --- | --- | --- | --- | --- | --- |
| ~ 3 | ~ 3 | CC1(C)CCC[C@]2(C)[C@H]3C=C4C(=CC(=O)[C@@H]4O)O[C@@]3(C)CC[C@@H]12 [Compound 3, 20-hydroxyhaterumadienone] |  |  |  |  |
| 32 | 9 | CC1(C)CCC[C@]2(C)[C@H]3C=C4C=C(O)C(=O)C=C4O[C@@]3(C)CC[C@@H]12 [Compound 1, puupehenone] | 8.3 | 0.8 |  | modest selectivity |
| 4 |  | CC1(C)CCC[C@]2(C)C3=CC4=CC(=O)C(=O)C=C4O[C@@]3(C)CC[C@@H]12 [Compound 5, puupehedione] |  |  |  |  |
